According to US5519007A, “Lysosphingolipid derivatives” (Fidia, S.p.A., priority 1988, dated 1996):

Columns and labels:
protein-kinase C (PKC) = experiment: Glutamate-induced PKC translocation, [3H]-P(BtO)2 bond in intact primary cerebellar granule cells; type: cell-based, Sprague-Dawley rats; conditions: for IC50: 2 h pre-incubation at 37° C., 1 μM glutamate, absence of Mg2+, read-out: PKC inhibition (ED50), glutamate-induced PKC translocation
Description: Translocation of PKC can be measured by assessment of the bond sites of 4-B-[3H]-phorbol 12,13-dibutyrate [3H]-P(Bt02) in intact cells.
(§5) Primary cultures were prepared with granule cells from 8-day-old Sprague-Dawley rats (Zivic Miller). […] The cultures were used for the experiments on the 8th and 9th days in vitro.
After 2 hours' incubation at 37° C. of the cells with or without the compounds (see above), the monolayers were washed once and the [^3 H]-P(BtO2) bond was assessed in the presence of 1 μM of glutamate and in the absence of Mg^2 +. […] Preliminary experiments have shown that balance is reached within 10 minutes, so the monolayers were incubated with [^3 H]-P(Bt0)2 for 15 minutes at 22° C. […] After incubation, the cells were washed three times with cold Locke's solution, and then suspended with 0.1M NaOH. Aliquots of the suspension were then used for protein determination (9) and liquid scintillation count. The nonspecific bond was determined in the presence of 2 μM phorbol 12-tetradecanoate 13-acetate (PTA).

[1] = system: primary granule cell cultures; experiment: Protection from glutamate-induced neuronal toxicity in primary granule cell cultures; type: cell-based, Sprague-Dawley rats
Description: as §5
Monolayers of intact granule cells were pre-incubated with various compounds at various concentrations for 2 hours at 37° C. […] Cell survival was assessed by histochemical techniques after 24 hours. In particular, cell viability was assessed after fluorescein staining, which gives green fluorescence to vital cells and red fluorescence to nonvital ones.

[2] = Neurotoxicity of the compounds themselves in culture in the absence of glutamate; type: cell-based, Sprague-Dawley rats; conditions: rat, cerebellar granule cells; 24 hours, absence of glutamate; read-out: Neurotoxicity in 24 hours (ED50)
Description: (§1) The following experiments show studies carried out with N-dichloroacetylsphingosine, in comparison to sphingosine. In particular, their effects on PKC translocation and glutamate-induced neuronal toxicity in primary granule cell cultures were observed. Possible cytotoxic effects of the products were assessed according to their neurotoxic effects in cerebellar cells in culture, as well as hemolysis.
(§2) Primary cultures were prepared with granule cells from 8-day-old Sprague-Dawley rats (Zivic Miller). These cultures have a granule cell content of >90%, 5% of GABAergic neurons [Gallo V. et al., Proc. Natl. Acad. Sci. USA 79, 7919-7923 (1982)] and <5% of glia cells [Vaccarino F. M. et al., J. Neurosci. 7, 65-76 (1987)]. The cultures were used for the experiments on the 8th and 9th days in vitro.
(§3) On the 8th and 9th days in vitro, sphingosines and N-dichloroacetylsphingosines at various concentrations (1-100μM) were added to the cultures. In particular, monolayers of granule cells were pre-incubated with these compounds in Locke's solution (1 ml) for 2 hrs at 37° C. The sphingosine was dissolved in ethanol, stored as an equimolar complex with bovine serum albumin (BSA) with no fatty acids, and diluted directly with the Locke's solution used to preincubate the cells. The N-dichloroacetylsphingosine was dissolved in DMSO and diluted directly in Locke's solution (as noted above). Aliquots of the dilutions were dried in a flow of N2, after which Locke's solution was added until the desired concentration was reached.
(§4) Possibile cytotoxicity of the compounds themselves was calculated by assessing the toxicity in the […] cultures in the absence of glutamate. The experiments and techniques used were those described above, with the difference that glutamate was omitted. The possible hemolytic effects of the compounds were also assessed. Samples of blood were taken from 4 volunteers. Each sample was subdivided into three test tubes as follows: […]

[3] = system: cerebellar cells in culture; experiment: as above; type: cell-based, Sprague-Dawley rats; conditions: compared with concentrations antagonizing PKC translocation and neuronal toxicity induced by glutamate
Description: as §1, §2, §3, §4

blood = experiment: Hemolysis in blood of volunteers (cyanomethahemoglobin method); type: cell-based, human (volunteers); conditions: 45 minutes at 37° C., various concentrations, vs plasma negative control; FIGURE
PKC [4] = conditions: granule cells; Vaccarino et al. 1987; cited from earlier work
granule cells = conditions: literature; cited from earlier work
[5] = system: glutamate high affinity recognition site; conditions: literature; cited from earlier work
[3H]-P(Bt02) bond = literature; cited from earlier work
PKC [6] = conditions: literature (Hannun, Merril, Wilson); cited from earlier work

Row | Molecule | Inhibition of glutamate-induced PKC translocation (in words) (protein-kinase C (PKC)) | IC50 (protein-kinase C (PKC)) | Reduction of cell toxicity induced by glutamate (in words) ([1]; 50 μM glutamate) | EC50 ([1]; Rattus norvegicus, 2 h pre-incubation at 37° C., 50 μM glutamate 15 min without Mg2+, survival after 24 hours, read-out: Protection from glutamate (ED50), neuronal toxicity induced by glutamate) | CC50 at 24 h [2] | Neurotoxicity of the compound itself (in words) [3] | Hemolysis (blood) | Effect on glutamate-induced translocation and activation of PKC (PKC [4]) | Protection from glutamate-induced cell damage (granule cells) | Interference with the glutamate bond at its high affinity recognition site [5] | Interference with the [3H]-P(Bt02) bond ([3H]-P(Bt02) bond) | Effect on activity and translocation of PKC (PKC [6])
1 | CCCCCCCCCCCCC/C=C/[C@@H](O)[C@H](CO)NC(=O)C(Cl)Cl [N-dichloroacetylsphingosine, N-DICHLOROACETYL SPHINGOSINE] | inhibited glutamate-induced PKC translocation | 30 µM | significantly reducing cell toxicity induced by glutamate | 30 µM | > 100 µM | either no toxicity at all, or toxicity at significantly higher concentrations than those able to antagonize translocation induced by glutamate (column 1) as well as the neuronal toxicity induced by glutamate | does not cause hemolysis |  |  |  |  | 
2 | trisialosyl-N-tetra-glycosylceramide [GT1b] |  |  |  |  |  |  |  | inhibits the translocation and activation of PKC induced by glutamate | offer protection from glutamate-induced cell damage | do not interfere with the glutamate bond up to its high affinity recognition site | do not interfere with the glutamate bond up to its high affinity recognition site or with the [3H]-P(Bt02) bond | 
3 | monosialosyl-N-tetra-glycosylceramide [GM1] |  |  |  |  |  |  |  | inhibits the translocation and activation of PKC induced by glutamate | offer protection from glutamate-induced cell damage | do not interfere with the glutamate bond up to its high affinity recognition site | do not interfere with the glutamate bond up to its high affinity recognition site or with the [3H]-P(Bt02) bond | 
4 | CCCCCCCCCCCCC/C=C/[C@@H](O)[C@@H](N)CO [Sphingosine] |  | 20 µM |  |  | 10 to 20 µM |  | contrary to sphingosine, does not cause hemolysis |  |  |  |  | inhibit the activity and translocation of PKC
